Test results taken from PubChem BioAssay (NCI).
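Cells were grown in 96-well plates and exposed to each compound for 48 hours at five concentrations; endpoints were interpolated linearly between bracketing concentrations, or set to the highest concentration if not reached. GI50: concentration for 50% inhibition of growth. TGI: total growth inhibition.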

Key:
Test in all cases: growth of human tumour cells (NCI), 48 h
DU-145 prostate = tested on: DU-145 prostate
NCI-H522 lung = tested on: NCI-H522 lung
T-47D breast = tested on: T-47D breast
MOLT-4 leukemia = tested on: MOLT-4 leukemia
EKVX NSCLC = tested on: EKVX NSCLC
SK-MEL-28 melanoma = tested on: SK-MEL-28 melanoma
NCI/ADR-RES ovarian = tested on: NCI/ADR-RES ovarian
SNB-19 CNS = tested on: SNB-19 CNS
UACC-257 melanoma = tested on: UACC-257 melanoma
OVCAR-5 ovarian = tested on: OVCAR-5 ovarian
UACC-62 melanoma = tested on: UACC-62 melanoma
SR leukemia = tested on: SR leukemia
RPMI-8226 leukemia = tested on: RPMI-8226 leukemia
PC-3 prostate = tested on: PC-3 prostate
MDA-MB-231 breast = tested on: MDA-MB-231 breast
A549 NSCLC = tested on: A549 NSCLC
MALME-3M melanoma = tested on: MALME-3M melanoma
HCC-2998 colon = tested on: HCC-2998 colon
U251 CNS = tested on: U251 CNS
HOP-92 NSCLC = tested on: HOP-92 NSCLC
KM12 colon = tested on: KM12 colon
NCI-H460 lung = tested on: NCI-H460 lung
M14 melanoma = tested on: M14 melanoma
HL-60(TB) leukemia = tested on: HL-60(TB) leukemia
NCI-H23 lung = tested on: NCI-H23 lung
COLO 205 colon = tested on: COLO 205 colon
HT29 colon = tested on: HT29 colon
OVCAR-8 ovarian = tested on: OVCAR-8 ovarian
SF-268 CNS = tested on: SF-268 CNS
HCT-15 colon = tested on: HCT-15 colon
ACHN renal = tested on: ACHN renal
OVCAR-4 ovarian = tested on: OVCAR-4 ovarian
SW-620 colon = tested on: SW-620 colon
SN12C renal = tested on: SN12C renal
SNB-75 CNS = tested on: SNB-75 CNS
A498 renal = tested on: A498 renal
IGROV1 ovarian = tested on: IGROV1 ovarian
CAKI-1 renal = tested on: CAKI-1 renal
NCI-H226 lung = tested on: NCI-H226 lung
SK-OV-3 ovarian = tested on: SK-OV-3 ovarian
HCT-116 colon = tested on: HCT-116 colon
RXF 393 renal = tested on: RXF 393 renal
HOP-62 NSCLC = tested on: HOP-62 NSCLC
HS 578T breast = tested on: HS 578T breast
CCRF-CEM leukemia = tested on: CCRF-CEM leukemia
UO-31 renal = tested on: UO-31 renal
SF-295 CNS = tested on: SF-295 CNS
BT-549 breast = tested on: BT-549 breast
SK-MEL-2 melanoma = tested on: SK-MEL-2 melanoma
786-0 renal = tested on: 786-0 renal
OVCAR-3 ovarian = tested on: OVCAR-3 ovarian
SK-MEL-5 melanoma = tested on: SK-MEL-5 melanoma
LOX IMVI melanoma = tested on: LOX IMVI melanoma
TK-10 renal = tested on: TK-10 renal
K-562 leukemia = tested on: K-562 leukemia
MCF7 breast = tested on: MCF7 breast
SF-539 CNS = tested on: SF-539 CNS
MDA-MB-435 = tested on: MDA-MB-435

## Fc1cccc(COc2ccc(Nc3ncnc4sc(-c5ccco5)cc34)cc2Cl)c1
DU-145 prostate
  GI50: > 25 µM
  TGI: > 25 µM
NCI-H522 lung
  GI50: > 25 µM
  TGI: > 25 µM
T-47D breast
  GI50: > 14.5 µM
  TGI: > 25 µM
MOLT-4 leukemia
  GI50: > 25 µM
  TGI: > 25 µM
EKVX NSCLC
  GI50: > 25 µM
  TGI: > 25 µM
SK-MEL-28 melanoma
  GI50: > 25 µM
  TGI: > 25 µM
NCI/ADR-RES ovarian
  GI50: > 25 µM
  TGI: > 25 µM
SNB-19 CNS
  GI50: > 25 µM
  TGI: > 25 µM
UACC-257 melanoma
  GI50: > 25 µM
  TGI: > 25 µM
OVCAR-5 ovarian
  GI50: > 25 µM
  TGI: > 25 µM
UACC-62 melanoma
  GI50: > 25 µM
  TGI: > 25 µM
SR leukemia
  GI50: > 25 µM
  TGI: > 25 µM
RPMI-8226 leukemia
  GI50: > 25 µM
  TGI: > 25 µM
PC-3 prostate
  GI50: > 25 µM
  TGI: > 25 µM
MDA-MB-231 breast
  GI50: > 25 µM
  TGI: > 25 µM
A549 NSCLC
  GI50: > 25 µM
  TGI: > 25 µM
MALME-3M melanoma
  GI50: > 25 µM
  TGI: > 25 µM
HCC-2998 colon
  GI50: > 25 µM
  TGI: > 25 µM
U251 CNS
  GI50: > 25 µM
  TGI: > 25 µM
HOP-92 NSCLC
  GI50: > 25 µM
  TGI: > 25 µM
KM12 colon
  GI50: > 25 µM
  TGI: > 25 µM
NCI-H460 lung
  GI50: > 25 µM
  TGI: > 25 µM
M14 melanoma
  GI50: > 25 µM
  TGI: > 25 µM
HL-60(TB) leukemia
  GI50: > 25 µM
  TGI: > 25 µM
NCI-H23 lung
  GI50: > 25 µM
  TGI: > 25 µM
COLO 205 colon
  GI50: > 25 µM
  TGI: > 25 µM
HT29 colon
  GI50: > 25 µM
  TGI: > 25 µM
OVCAR-8 ovarian
  GI50: > 25 µM
  TGI: > 25 µM
SF-268 CNS
  GI50: > 25 µM
  TGI: > 25 µM
HCT-15 colon
  GI50: > 25 µM
  TGI: > 25 µM
ACHN renal
  GI50: > 25 µM
  TGI: > 25 µM
OVCAR-4 ovarian
  GI50: > 25 µM
  TGI: > 25 µM
SW-620 colon
  GI50: > 25 µM
  TGI: > 25 µM
SN12C renal
  GI50: > 25 µM
  TGI: > 25 µM
SNB-75 CNS
  GI50: > 25 µM
  TGI: > 25 µM
A498 renal
  GI50: > 25 µM
  TGI: > 25 µM
IGROV1 ovarian
  GI50: > 25 µM
  TGI: > 25 µM
CAKI-1 renal
  GI50: > 25 µM
  TGI: > 25 µM
NCI-H226 lung
  GI50: > 25 µM
  TGI: > 25 µM
SK-OV-3 ovarian
  GI50: > 25 µM
  TGI: > 25 µM
HCT-116 colon
  GI50: > 25 µM
  TGI: > 25 µM
RXF 393 renal
  GI50: > 25 µM
  TGI: > 25 µM
HOP-62 NSCLC
  GI50: > 25 µM
  TGI: > 25 µM
HS 578T breast
  GI50: > 25 µM
  TGI: > 25 µM
CCRF-CEM leukemia
  GI50: > 25 µM
  TGI: > 25 µM
UO-31 renal
  GI50: > 25 µM
  TGI: > 25 µM
SF-295 CNS
  GI50: > 25 µM
  TGI: > 25 µM
BT-549 breast
  GI50: > 25 µM
  TGI: > 25 µM
SK-MEL-2 melanoma
  GI50: > 25 µM
  TGI: > 25 µM
786-0 renal
  GI50: > 25 µM
  TGI: > 25 µM
OVCAR-3 ovarian
  GI50: > 25 µM
  TGI: > 25 µM
SK-MEL-5 melanoma
  GI50: > 25 µM
  TGI: > 25 µM
LOX IMVI melanoma
  GI50: > 25 µM
  TGI: > 25 µM
TK-10 renal
  GI50: > 25 µM
  TGI: > 25 µM
K-562 leukemia
  GI50: > 25 µM
  TGI: > 25 µM
MCF7 breast
  GI50: > 25 µM
  TGI: > 25 µM
SF-539 CNS
  GI50: > 25 µM
  TGI: > 25 µM
MDA-MB-435
  GI50: > 25 µM
  TGI: > 25 µM
